Reference: ChEMBL document CHEMBL1201862, “PubChem BioAssay data set” (2004)
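Cultured in 96-well plates, cells were exposed to test compound for 48 hours across five concentrations. At the GI50, growth is halved.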 Calls of active or inactive are those of the source. No stated cut-off is given here; in the data, active = GI50 up to about 1.1 µM and inactive = higher.

Assays:
Experiment in all cases: NCI-60 cell line screen, 48 h
Malme-3M = system: Malme-3M
NCI/ADR-RES = system: NCI/ADR-RES
HOP-62 = system: HOP-62
OVCAR-5 = system: OVCAR-5
MOLT-4 = system: MOLT-4
RPMI-8226 = system: RPMI-8226
IGROV-1 = system: IGROV-1
HOP-92 = system: HOP-92
A498 = system: A498
SK-MEL-5 = system: SK-MEL-5
SF-295 = system: SF-295
UO-31 = system: UO-31
HCT-116 = system: HCT-116
EKVX = system: EKVX
OVCAR-4 = system: OVCAR-4
SK-MEL-28 = system: SK-MEL-28
SW-620 = system: SW-620
SF-268 = system: SF-268
U-251 = system: U-251
TK-10 = system: TK-10

Measured: GI50

C=CCCCCn1c2ccccc2c2c(C)c3cnccc3c(C)c21
inactive: Malme-3M 9.02 µM | NCI/ADR-RES 5.07 µM | HOP-62 16.2 µM | OVCAR-5 16.9 µM | MOLT-4 2.83 µM | RPMI-8226 2.81 µM | IGROV-1 11.7 µM | HOP-92 4.06 µM | A498 5.86 µM | SK-MEL-5 5.08 µM | SF-295 8.71 µM | UO-31 5.75 µM | HCT-116 4.63 µM | EKVX 12.9 µM | OVCAR-4 6.5 µM | SK-MEL-28 9.82 µM | SW-620 4.54 µM | SF-268 11.3 µM | U-251 12.5 µM

O=C(Cc1ccccc1)NN1C(=O)/C(=C\c2ccc(O)cc2)S/C1=N\c1ccccc1
inactive: TK-10 > 100 µM | NCI/ADR-RES > 100 µM | HOP-62 > 100 µM | OVCAR-5 > 100 µM | MOLT-4 95.5 µM | RPMI-8226 > 100 µM | IGROV-1 > 100 µM | HOP-92 21.6 µM | A498 > 100 µM | SK-MEL-5 > 100 µM | SF-295 > 100 µM | UO-31 > 100 µM | HCT-116 > 100 µM | EKVX > 100 µM | OVCAR-4 > 100 µM | SK-MEL-28 > 100 µM | SW-620 > 100 µM | SF-268 > 100 µM | U-251 > 100 µM

C=CCOCC1C2CCC3(OCCO3)C21 (stereo unspecified)
inactive: Malme-3M > 100 µM | TK-10 > 100 µM | NCI/ADR-RES > 100 µM | HOP-62 > 100 µM | OVCAR-5 > 100 µM | MOLT-4 > 100 µM | RPMI-8226 > 100 µM | IGROV-1 > 100 µM | HOP-92 > 100 µM | SK-MEL-5 > 100 µM | SF-295 > 100 µM | UO-31 19.1 µM | HCT-116 > 100 µM | EKVX > 100 µM | OVCAR-4 > 100 µM | SK-MEL-28 > 100 µM | SW-620 > 100 µM | SF-268 > 100 µM | U-251 > 100 µM

O=P(O)(O)CN1CCN(CP(=O)(O)O)CCN(CP(=O)(O)O)CCN(CP(=O)(O)O)CC1
inactive: TK-10 55.5 µM | NCI/ADR-RES > 100 µM | HOP-62 > 100 µM | OVCAR-5 73.8 µM | MOLT-4 41.3 µM | RPMI-8226 21.2 µM | IGROV-1 > 100 µM | HOP-92 38.3 µM | A498 62.5 µM | SK-MEL-5 > 10 µM | SF-295 > 100 µM | UO-31 > 100 µM | HCT-116 36.4 µM | EKVX > 100 µM | OVCAR-4 > 100 µM | SW-620 42.6 µM | SF-268 > 100 µM | U-251 45.6 µM

COc1cc(C2c3cc(OC)c(OC)c(O)c3C(=O)C3CCC(=O)N32)cc(OC)c1OC (stereo unspecified)
inactive: TK-10 > 100 µM | NCI/ADR-RES 22 µM | HOP-62 > 100 µM | OVCAR-5 > 100 µM | MOLT-4 25.6 µM | RPMI-8226 28.8 µM | IGROV-1 > 100 µM | HOP-92 35.3 µM | A498 > 100 µM | SK-MEL-5 53.1 µM | SF-295 > 100 µM | HCT-116 93.1 µM | EKVX > 100 µM | OVCAR-4 > 100 µM | SK-MEL-28 > 100 µM | SW-620 35.6 µM | SF-268 69.8 µM | U-251 86.7 µM

COc1ccc2cc(/C=N\NC(=O)Nc3cccc4ccccc34)ccc2c1
inactive: Malme-3M 97.7 µM | TK-10 22 µM | NCI/ADR-RES > 100 µM | HOP-62 15.3 µM | OVCAR-5 69.5 µM | MOLT-4 34.1 µM | IGROV-1 66.1 µM | A498 17.5 µM | SK-MEL-5 37.3 µM | UO-31 87.3 µM | HCT-116 16.6 µM | EKVX 30.6 µM | OVCAR-4 14.5 µM | SK-MEL-28 33 µM | SW-620 74 µM | SF-268 52.6 µM | U-251 16.4 µM

CC1(C)C[C@H]2C=C(C=O)[C@]34C[C@]3(C(=O)OC4O)[C@H]2C1 (stereo partly specified)
inactive: Malme-3M 1.73 µM | TK-10 1.77 µM | HOP-62 14.2 µM | OVCAR-5 2.37 µM | MOLT-4 1.53 µM | RPMI-8226 4.54 µM | IGROV-1 3.05 µM | HOP-92 2.17 µM | A498 3.06 µM | SK-MEL-5 1.63 µM | SF-295 1.55 µM | UO-31 1.83 µM | HCT-116 1.14 µM | EKVX 1.61 µM | OVCAR-4 2.55 µM | SK-MEL-28 2.92 µM | SW-620 3.92 µM | SF-268 1.61 µM | U-251 8.77 µM

Cc1ccc(S(=O)(=O)NCCSCCNS(=O)(=O)c2ccc(C)cc2)cc1
inactive: TK-10 > 100 µM | NCI/ADR-RES > 100 µM | MOLT-4 > 100 µM | HOP-92 > 100 µM | A498 > 100 µM | SK-MEL-5 > 100 µM | SF-295 > 100 µM | UO-31 > 100 µM | HCT-116 > 100 µM | OVCAR-4 > 100 µM | SK-MEL-28 > 100 µM | SW-620 > 100 µM | SF-268 > 100 µM | U-251 > 100 µM

N/C(S)=N/N=C/c1ccc(O)cn1
inactive: Malme-3M 7.55 µM | TK-10 105 µM | NCI/ADR-RES 4.01 µM | HOP-62 4.59 µM | OVCAR-5 45 µM | RPMI-8226 10.7 µM | IGROV-1 21.3 µM | HOP-92 4.68 µM | A498 32 µM | SK-MEL-5 5.65 µM | SF-295 20.4 µM | UO-31 10.6 µM | HCT-116 10.9 µM | EKVX 14.5 µM | SK-MEL-28 30.1 µM | SW-620 15.4 µM | SF-268 4.3 µM | U-251 6.18 µM

Cc1ccc(-c2c(C#N)c(N)nc3c2CCS(=O)(=O)c2ccccc2-3)cc1
inactive: Malme-3M 39.4 µM | TK-10 59.7 µM | NCI/ADR-RES 85.9 µM | RPMI-8226 > 100 µM | IGROV-1 34.1 µM | HOP-92 34.1 µM | A498 > 100 µM | SK-MEL-5 66.7 µM | UO-31 90.8 µM | HCT-116 > 100 µM | OVCAR-4 40.6 µM | SK-MEL-28 72.4 µM | SW-620 > 100 µM | SF-268 83.4 µM | U-251 68.2 µM

CC1=C(C(=O)Nc2cccc(Cl)c2)C(c2ccc([N+](=O)[O-])cc2)C(C(=O)Nc2cccc(Cl)c2)=C(C)N1
inactive: Malme-3M 21 µM | TK-10 67.3 µM | HOP-62 29 µM | OVCAR-5 48 µM | MOLT-4 10.3 µM | RPMI-8226 15.5 µM | IGROV-1 26.5 µM | HOP-92 11.5 µM | A498 33.1 µM | SK-MEL-5 17.5 µM | SF-295 23.6 µM | UO-31 17.7 µM | HCT-116 13.1 µM | EKVX 33.3 µM | OVCAR-4 20.7 µM | SK-MEL-28 25.3 µM | SW-620 > 10 µM | SF-268 27 µM | U-251 15.8 µM

O=C(/C(=C/c1ccc(O)cc1)c1ccccc1)c1ccccc1
inactive: Malme-3M 19 µM | TK-10 16.2 µM | HOP-62 19.3 µM | OVCAR-5 17 µM | MOLT-4 15.4 µM | RPMI-8226 17.3 µM | IGROV-1 18.7 µM | HOP-92 5.65 µM | A498 17.9 µM | SK-MEL-5 15 µM | SF-295 16.1 µM | UO-31 15.4 µM | HCT-116 16.7 µM | EKVX 20 µM | OVCAR-4 21.9 µM | SK-MEL-28 17.9 µM | SW-620 18 µM | SF-268 17.3 µM | U-251 16.2 µM

CC1(c2nc3ccccc3[nH]2)CCC(CO)C(C)(C)O1 (stereo unspecified)
inactive: Malme-3M > 100 µM | TK-10 > 100 µM | NCI/ADR-RES > 100 µM | HOP-62 > 100 µM | OVCAR-5 > 100 µM | MOLT-4 > 100 µM | RPMI-8226 > 100 µM | IGROV-1 > 100 µM | HOP-92 > 100 µM | SK-MEL-5 > 100 µM | SF-295 > 100 µM | UO-31 98.6 µM | HCT-116 > 100 µM | EKVX > 100 µM | OVCAR-4 > 100 µM | SK-MEL-28 > 100 µM | SW-620 > 100 µM | SF-268 > 100 µM | U-251 > 100 µM

O=Cc1cccc2ccc3ccccc3c12
inactive: Malme-3M 16.4 µM | TK-10 14.3 µM | NCI/ADR-RES 8.45 µM | HOP-62 15.9 µM | A498 22.4 µM | SK-MEL-5 16.9 µM | SF-295 17.1 µM | UO-31 24 µM | HCT-116 9.18 µM | SW-620 10.4 µM | SF-268 11.5 µM | U-251 5.93 µM

CC(C)CCNC(=O)c1ccc(CNC(=O)/C=C/c2ccc(OCc3ccccc3)cc2)cc1
inactive: NCI/ADR-RES > 100 µM | HOP-62 > 100 µM | OVCAR-5 > 100 µM | MOLT-4 > 100 µM | RPMI-8226 > 100 µM | HOP-92 > 100 µM | A498 > 100 µM | SK-MEL-5 > 100 µM | SF-295 > 100 µM | UO-31 > 100 µM | HCT-116 > 100 µM | OVCAR-4 > 100 µM | SK-MEL-28 > 100 µM | SW-620 > 100 µM | SF-268 > 100 µM | U-251 > 100 µM
